According to PubChem BioAssay AID1259407 (Chemical Carcinogenesis Research Information System (CCRIS), 2018):
Activity calls are given as the source filed them. No rule for the calls is given here.

Tested on: CCRIS mutagenicity, Ames/micronucleus/aberration tests
Assay: CCRIS mutagenicity studies
[1] = Test System: AMES SALMONELLA TYPHIMURIUM, Strain/Indicator: TA100, Metabolic Activation: NONE, Method: STANDARD PLATE

Q: `Cc1ccc(C(C)C)c(O)c1` was tested. Which mutagenic call (End Point: IN VITRO CHROMOSOMAL ABERRATIONS, Test System: SYRIAN HAMSTER EMBRYO (SHE) CELLS, Metabolic Activation: NONE) did it give?
A: inactive; negative; toxic at 520 um

Q: What about the mutagenic call (End Point: IN VITRO CHROMOSOMAL ABERRATIONS, Test System: SYRIAN HAMSTER EMBRYO (SHE) CELLS, Metabolic Activation: RAT, LIVER, S-9) of the same molecule?
A: active; positive (structural changes)

Q: And the mutagenic call (End Point: In vitro micronucleus, Test System: Human peripheral lymphocytes)?
A: active; positive

Q: And the mutagenic call (End Point: In vivo chromosomal aberrations, Test System: Bone marrow cells, Species: Rat, Strain/Sex: Sprague-Dawley/Male, Route: Intraperitoneal)?
A: active; positive (structural and numerical changes)

Q: What about the mutagenic call (End Point: In vivo chromosomal aberrations, Test System: Human peripheral lymphocytes) of the same molecule?
A: active; positive (structural changes)

Q: What about the mutagenic call (Test System: AMES SALMONELLA TYPHIMURIUM, Strain/Indicator: TA97, Metabolic Activation: NONE, Method: PREINCUBATION (20 MIN)) of the same molecule?
A: inactive; negative

Q: And the mutagenic call (Test System: AMES SALMONELLA TYPHIMURIUM, Strain/Indicator: TA97, Metabolic Activation: S-9, Method: PREINCUBATION (20 MIN))?
A: inactive; negative

Q: And the mutagenic call (Test System: AMES SALMONELLA TYPHIMURIUM, Strain/Indicator: TA98, Metabolic Activation: NONE, Method: PREINCUBATION (20 MIN))?
A: inactive; negative

Q: What about the mutagenic call (Test System: AMES SALMONELLA TYPHIMURIUM, Strain/Indicator: TA98, Metabolic Activation: S-9, Method: PREINCUBATION (20 MIN)) of the same molecule?
A: inactive; negative

Q: And the mutagenic call (Test System: AMES SALMONELLA TYPHIMURIUM, Strain/Indicator: TA100, Metabolic Activation: NONE, Method: PREINCUBATION (20 MIN))?
A: inactive; negative

Q: What about the mutagenic call (Test System: AMES SALMONELLA TYPHIMURIUM, Strain/Indicator: TA100, Metabolic Activation: S-9, Method: PREINCUBATION (20 MIN)) of the same molecule?
A: inactive; negative

Q: How did the mutagenic call (Test System: AMES SALMONELLA TYPHIMURIUM, Strain/Indicator: TA98, Metabolic Activation: HAMSTER, LIVER, S-9, AROCLOR 1254, Method: STANDARD PLATE) turn out when `CN(C)C(=O)Oc1ccc[n+](C)c1` was run?
A: inactive; negative

Q: What about the mutagenic call (Test System: AMES SALMONELLA TYPHIMURIUM, Strain/Indicator: TA98, Metabolic Activation: NONE, Method: STANDARD PLATE) of the same molecule?
A: inactive; negative

Q: And the mutagenic call (Test System: AMES SALMONELLA TYPHIMURIUM, Strain/Indicator: TA98, Metabolic Activation: RAT, LIVER, S-9, AROCLOR 1254, Method: STANDARD PLATE)?
A: inactive; negative

Q: And the mutagenic call (Test System: AMES SALMONELLA TYPHIMURIUM, Strain/Indicator: TA100, Metabolic Activation: HAMSTER, LIVER, S-9, AROCLOR 1254, Method: STANDARD PLATE)?
A: inactive; negative

Q: And the mutagenic call [1]?
A: inactive; negative

Q: What about the mutagenic call (Test System: AMES SALMONELLA TYPHIMURIUM, Strain/Indicator: TA100, Metabolic Activation: RAT, LIVER, S-9, AROCLOR 1254, Method: STANDARD PLATE) of the same molecule?
A: inactive; negative

Q: What about the mutagenic call (Test System: AMES SALMONELLA TYPHIMURIUM, Strain/Indicator: TA1535, Metabolic Activation: HAMSTER, LIVER, S-9, AROCLOR 1254, Method: STANDARD PLATE) of the same molecule?
A: inactive; negative

Q: And the mutagenic call (Test System: AMES SALMONELLA TYPHIMURIUM, Strain/Indicator: TA1535, Metabolic Activation: NONE, Method: STANDARD PLATE)?
A: inactive; negative

Q: What about the mutagenic call (Test System: AMES SALMONELLA TYPHIMURIUM, Strain/Indicator: TA1535, Metabolic Activation: RAT, LIVER, S-9, AROCLOR 1254, Method: STANDARD PLATE) of the same molecule?
A: inactive; negative

Q: What about the mutagenic call (Test System: AMES SALMONELLA TYPHIMURIUM, Strain/Indicator: TA1537, Metabolic Activation: HAMSTER, LIVER, S-9, AROCLOR 1254, Method: STANDARD PLATE) of the same molecule?
A: inactive; negative

Q: What about the mutagenic call (Test System: AMES SALMONELLA TYPHIMURIUM, Strain/Indicator: TA1537, Metabolic Activation: NONE, Method: STANDARD PLATE) of the same molecule?
A: inactive; negative

Q: And the mutagenic call (Test System: AMES SALMONELLA TYPHIMURIUM, Strain/Indicator: TA1537, Metabolic Activation: RAT, LIVER, S-9, AROCLOR 1254, Method: STANDARD PLATE)?
A: inactive; negative

Q: And the mutagenic call (Test System: AMES SALMONELLA TYPHIMURIUM, Strain/Indicator: TA1538, Metabolic Activation: HAMSTER, LIVER, S-9, AROCLOR 1254, Method: STANDARD PLATE)?
A: inactive; negative

Q: What about the mutagenic call (Test System: AMES SALMONELLA TYPHIMURIUM, Strain/Indicator: TA1538, Metabolic Activation: NONE, Method: STANDARD PLATE) of the same molecule?
A: inactive; negative

Q: What about the mutagenic call (Test System: AMES SALMONELLA TYPHIMURIUM, Strain/Indicator: TA1538, Metabolic Activation: RAT, LIVER, S-9, AROCLOR 1254, Method: STANDARD PLATE) of the same molecule?
A: inactive; negative

Q: What about the mutagenic call (Test System: MOUSE LYMPHOMA, Strain/Indicator: L5178Y (TK+/TK-), Metabolic Activation: NONE, Method: SUSPENSION/PLATE) of the same molecule?
A: inactive; negative. reevaluation of results: negative

Q: What about the mutagenic call (Test System: MOUSE LYMPHOMA, Strain/Indicator: L5178Y (TK+/TK-), Metabolic Activation: RAT, LIVER, S-9, AROCLOR 1254, Method: SUSPENSION/PLATE) of the same molecule?
A: active; positive. reevaluation of results: equivocal

Q: For `Cc1cn(CC(O)CN=[N+]=[N-])c(=O)[nH]c1=O` (centres undefined), which mutagenic call [1] is on record?
A: active; positive
